Three compounds from patent publication US4724229A, “Arg-arg-arg-vasopressin antagonists” (Smithkline Beckman Corporation, priority 1986, dated 1988) can be followed below.

Assay [1] has as its target T1, LVP stimulated adenylate cyclase of pig kidney medullary membrane (Sus scrofa, UniProt P32307).
T1 construct: stimulated adenylate cyclase of pig kidney medullary membrane; from tissue; host or cells: pig kidney medullary membranes
In words: Inhibition of LVP stimulated adenylate cyclase of pig kidney medullary membrane. The class given is biochemical. On the procedure: (§1) V2 -antagonistic activity toward the natural anti-diuretic hormone (anti-ADH activity) is determined, in vitro, in the medullary tissue of hog or human kidneys and, in vivo, in the hydropenic rat. The in vitro assay procedures for vasopressin stimulated adenylate cyclase activation or vasopressin binding activity are described by F. Stassen et al., J. Pharmacology and Experimental Therapeutics, 223, 50-54 (1982). V1 -antagonistic activity is determined by procedures using the rat thoracic aorta tissue and plasma membranes of rat liver. These procedures are described in the noted Stassen publication and in a publication at the 1st International Conference on Diuretics, Miami, Fla., March (1984). Oxytocin antagonism is determined as described by W. Sawyer et al., Endocrinology, 106 81 (1979). | ^b Ki is the inhibition constant measured for inhibition of LVP | stimulated adenylate cyclase of pig kidney medullary membrane, and is | derived from the equation for competitive inhibition as described.

Assay [2] concerns the target T2, receptor in the human liver membrane tissue (V1) (Homo sapiens, UniProt P37288).
T2 construct: in the human liver membrane tissue; from tissue; host or cells: human liver membranes
Description: Binding to human liver membranes V1 (Kbind). On the procedure: as §1, with “(1979).” for “(1979). | ^b Ki is the inhibition constant measured for inhibition of LVP | stimulated adenylate cyclase of pig kidney medullary membrane, and is | derived from the equation for competitive inhibition as described.”
^d Kbind is a measure of the affinity of a ligand for a receptor
in the human liver membrane tissue. It is derived from the equation in […]

In assay [3] the target is T3, receptor in the porcine renal medullary membrane (vasopressin V2 -receptors) (Sus scrofa, UniProt P32307).
T3 construct: in the porcine renal medullary membrane; from tissue; host or cells: porcine renal medullary membranes
T3 sequence (P32307 whole entry): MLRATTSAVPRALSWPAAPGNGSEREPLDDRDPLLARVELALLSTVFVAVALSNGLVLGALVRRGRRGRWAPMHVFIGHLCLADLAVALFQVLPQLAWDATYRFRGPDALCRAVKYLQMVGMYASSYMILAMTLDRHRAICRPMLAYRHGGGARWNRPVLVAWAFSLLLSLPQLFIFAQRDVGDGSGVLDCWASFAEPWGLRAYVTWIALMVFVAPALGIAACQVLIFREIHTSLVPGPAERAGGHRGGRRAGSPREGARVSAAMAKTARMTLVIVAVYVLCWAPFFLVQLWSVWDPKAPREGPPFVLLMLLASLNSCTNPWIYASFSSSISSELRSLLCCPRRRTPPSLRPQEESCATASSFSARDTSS
Description: [3H]LVP binding, porcine renal medullary membrane (Kbind). Conditions: competition with [3H]LVP binding, Kb = IC50/(1 + L/KD). On the procedure:
V2 -antagonistic activity toward the natural anti-diuretic hormone (anti-ADH activity) is determined, in vitro, in the medullary tissue of hog or human kidneys and, in vivo, in the hydropenic rat. The in vitro assay procedures for vasopressin stimulated adenylate cyclase activation or vasopressin binding activity are described by F. Stassen et al., J. Pharmacology and Experimental Therapeutics, 223, 50-54 (1982). V1 -antagonistic activity is determined by procedures using the rat thoracic aorta tissue and plasma membranes of rat liver. These procedures are described in the noted Stassen publication and in a publication at the 1st International Conference on Diuretics, Miami, Fla., March (1984). Oxytocin antagonism is determined as described by W. Sawyer et al., Endocrinology, 106 81 (1979). | ^a Kbind is a measure of the affinity of a ligand for a receptor | in the porcine renal medullary membrane. It is derived from the equation | for competitive inhibition Kb = IC50 /(1 + L/KD) where | IC50 is the concentration of the ligand for 50% inhibition of [^ | H]LVP binding, L is the concentration of the ligand, and KD is the | dissociation constant of [^3 H]LVP.

Molecules are shown by their SMILES. Numbered stars: 1 amine (or outer) side, 2 acyl side, 3 side chain; on linkers, the order of the positions; unused ones are H or OH. Bridge positions count the residues as written; N and C are the ends. Square brackets hold non-standard residues; d marks the D form. Peptide text beside a SMILES is read from it. X1 = O=C(CC1(S[*:2])CCCCC1)[*:1]

T2 sequence (P37288 whole entry): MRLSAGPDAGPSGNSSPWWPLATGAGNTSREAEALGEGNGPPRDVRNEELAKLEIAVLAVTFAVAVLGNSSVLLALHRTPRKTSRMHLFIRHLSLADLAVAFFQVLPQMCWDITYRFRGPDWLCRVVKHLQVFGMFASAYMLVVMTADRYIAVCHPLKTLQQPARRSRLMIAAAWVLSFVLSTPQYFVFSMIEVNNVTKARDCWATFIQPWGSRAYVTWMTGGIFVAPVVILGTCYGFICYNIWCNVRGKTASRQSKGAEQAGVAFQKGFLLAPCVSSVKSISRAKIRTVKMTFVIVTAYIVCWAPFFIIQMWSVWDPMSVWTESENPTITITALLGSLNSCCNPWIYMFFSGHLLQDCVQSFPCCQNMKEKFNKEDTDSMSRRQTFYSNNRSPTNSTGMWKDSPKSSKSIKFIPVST
T1 sequence (P32307 whole entry): as the sequence (P32307 whole entry) above

In the case of `CCOc1ccc(C[C@H]2NC(=O)CC3(CCCCC3)SSC[C@@H](C(=O)N[C@@H](CCCNC(=N)N)C(=O)N[C@@H](CCCNC(=N)N)C(=O)N[C@@H](CCCNC(=N)N)C(N)=O)NC(=O)[C@H](CC(N)=O)NC(=O)[C@H](C(C)C)NC(=O)[C@H](Cc3ccccc3)NC2=O)cc1` [No. 1, [1-(β-mercapto-β,β-cyclopentamethylenepropionic acid)-2-(O-ethyl)-D-tyrosine-4-valine-7-arginine-8-arginine-9-arginine]-vasopressin] ([dY](Et)FVNCRRR-NH2; linker N-5 via X1), the Ki in assay [1] stood at 1.54 nM; in assay [2], 4.41 nM; in assay [3], 2.6 nM.
As to `CCOc1ccc(C[C@H]2NC(=O)CC3(CCCCC3)SSC[C@@H](C(=O)N[C@@H](CCCNC(=N)N)C(N)=O)NC(=O)[C@H](CC(N)=O)NC(=O)[C@H](C(C)C)NC(=O)[C@H](Cc3ccccc3)NC2=O)cc1` [compound 2] ([dY](Et)FVNCR-NH2; linker N-5 via X1), the results for the Ki in assay [2] and in assay [3] were 1.3 nM and 9.1 nM, respectively.
On to `CCOc1ccc(C[C@H]2NC(=O)CC3(CCCCC3)SSC[C@@H](C(=O)N[C@@H](CCCNC(=N)N)C(=O)N[C@@H](CCCNC(=N)N)C(N)=O)NC(=O)[C@H](CC(N)=O)NC(=O)[C@H](C(C)C)NC(=O)[C@H](Cc3ccccc3)NC2=O)cc1` [compound 3] ([dY](Et)FVNCRR-NH2; linker N-5 via X1), for which the Ki is 1.7 nM in assay [1], 1.3 nM in assay [2] and 3.4 nM in assay [3].

Usually Ki stands for a measure of affinity in units of concentration, obtained from inhibition or displacement.
